Measured values taken from patent US20260206754A1, “HETEROARYL COMPOUNDS FOR THE CONTROL OF INVERTEBRATE PESTS” (priority 2022, published 2026).
Like-named read-outs stand apart in the source and are kept apart here.

Experiments:
Assay type in all cases: in vivo
[1] = system: tobacco budworm (Heliothis virescens); test: B.1 Tobacco budworm, 96-well microtiter plate diet test with eggs; settings: for mortality at 2500 ppm: 120 h, egg and larval mortality after 5 days, read-out: mortality in comparison with untreated controls; for mortality at 274 ppm: comparative experiment C.9; for mortality at 100 ppm: comparative experiment C.6
Experimental: (§1) If not otherwise specified, the test solutions were prepared as follow: The active compound was dissolved at the desired concentration in a mixture of 1:1 (vol:vol) distilled water:acetone. The test solution was prepared on the day of use.
B.1 Tobacco Budworm (Heliothis virescens)
For evaluating control of tobacco budworm (Heliothis virescens) the test unit consisted of 96-well-microtiter plates containing an insect diet and 15-25 H. virescens eggs.
The compounds were formulated using a solution containing 75% v/v water and 25% v/v DMSO. Different concentrations of formulated compounds were sprayed onto the insect diet at 10 μl, using a custom-built micro atomizer, at two replications.
After application, microtiter plates were incubated at about 28±1° C. and about 80±5% relative humidity for 5 days. Egg and larval mortality was then visually assessed.

[2] = system: green peach aphid (Myzus persicae); test: B.6 Green peach aphid, systemic test with artificial diet under membrane
Experimental: as §1
B.6 Green Peach Aphid (Myzus persicae)
For evaluating control of green peach aphid (Myzus persicae) through systemic means, the test unit consisted of 96-well-microtiter plates containing liquid artificial diet under an artificial membrane.
The compounds were formulated using a solution containing 75% v/v water and 25% v/v DMSO. Different concentrations of formulated compounds were pipetted into the aphid diet, using a custom built pipetter, at two replications.
After application, 5-8 adult aphids were placed on the artificial membrane inside the microtiter plate wells. The aphids were then allowed to suck on the treated aphid diet and incubated at about 23±1° C. and about 50±5% relative humidity for 3 days. Aphid mortality and fecundity was then visually assessed.

[3] = system: boll weevil (Anthonomus grandis); test: B.2 Boll weevil, 96-well microtiter plate diet test with eggs; settings: for mortality at 2500 ppm: 120 h, egg and larval mortality after 5 days, read-out: mortality in comparison with untreated controls; for mortality at 9.9 ppm: comparative experiment C.9
Experimental: as §1
B.2 Boll Weevil (Anthonomus grandis)
For evaluating control of boll weevil (Anthonomus grandis) the test unit consisted of 96-well-microtiter plates containing an insect diet and 5-10 A. grandis eggs.
The compounds were formulated using a solution containing 75% v/v water and 25% v/v DMSO. Different concentrations of formulated compounds were sprayed onto the insect diet at 5 μl, using a custom-built micro atomizer, at two replications.
After application, microtiter plates were incubated at about 25±1° C. and about 75±5% relative humidity for 5 days. Egg and larval mortality was then visually assessed.

[4] = system: yellow fever mosquito (Aedes aegypti); test: whole plant or invertebrate; settings: for mortality at 2500 ppm: 48 h, larval mortality after 2 days, read-out: mortality in comparison with untreated controls; for mortality at 90 ppm: comparative experiment C.4, read-out: B.5, 90 ppm (mortality)
Experimental: as §1
B.5 Yellow Fever Mosquito (Aedes aegypti)
For evaluating control of yellow fever mosquito (Aedes aegypti) the test unit consisted of 96-well-microtiter plates containing 200 μl of tap water per well and 5-15 freshly hatched A. aegypti larvae.
The active compounds were formulated using a solution containing 75% (v/v) water and 25% (v/v) DMSO. Different concentrations of formulated compounds or mixtures were sprayed onto the insect diet at 2.5 μl, using a custom-built micro atomizer, at two replications.
After application, microtiter plates were incubated at 281° C., 80±5% RH for 2 days. Larval mortality was then visually assessed.

[5] = system: Southern armyworm (Spodoptera eridania), 2nd instar larvae; test: B.3 Southern armyworm, 2nd instar larvae, foliar spray on lima bean plants; settings: 96 h, 4 days after treatment, read-out: mortality in comparison with untreated controls
Experimental: B.3 Southern Armyworm (Spodoptera eridania), 2nd Instar Larvae
The active compounds were formulated by a Tecan liquid handler in 100% cyclohexanone as a 10,000-ppm solution supplied in tubes. The 10,000-ppm solution was serially diluted in 100% cyclohexanone to make interim solutions. These served as stock solutions for which final dilutions were made by the Tecan in 50% acetone:50% water (v/v) into 10 or 20 ml glass vials. A non-ionic surfactant (Kinetic@) was included in the solution at a volume of 0.01% (v/v). The vials were then inserted into an automated electrostatic sprayer equipped with an atomizing nozzle for application to plants/insects. Lima bean plants (variety Sieva) were grown 2 plants to a pot and selected for treatment at the 1st true leaf stage. Test solutions were sprayed onto the foliage by an auto-mated electrostatic plant sprayer equipped with an atomizing spray nozzle. The plants were dried in the sprayer fume hood and then removed from the sprayer. Each pot was placed into perforated plastic bags with a zip closure. Ten to 11 armyworm larvae were placed into the bag and the bags zipped closed. Test plants were maintained in a growth room at about 25° C. and about 20-40% relative humidity for 4 days, avoiding direct exposure to fluorescent light (14:10 light:dark photoperiod) to prevent trapping of heat inside the bags. Mortality and reduced feeding were assessed 4 days after treatment, compared to untreated control plants.

[6] = comparative experiment C.8, read-out: B.6, 2500 ppm (mortality)
[7] = 72 h, aphid mortality after 3 days, read-out: mortality in comparison with untreated controls
[8] = Anthonomus grandis, 90 ppm, comparative experiment C.8
[9] = Anthonomus grandis, 90 ppm, comparative experiment C.7
[10] = Anthonomus grandis, 90 ppm, comparative experiment C.4

With `CC(NC(=O)c1cc(C(F)(F)F)cc(C(F)(F)F)c1)c1nccnc1-n1ncc(-c2ccn(C)n2)n1` (stereo not drawn) [I-29, N-[1-[3-[4-(1-methylpyrazol-3-yl)triazol-2-yl]pyrazin-2-yl]ethyl]-3,5-bis(trifluoromethyl)benzamide] the mortality at 2500 ppm [1] was no less than 75%, the mortality at 2500 ppm [2, 6] was 100% and the mortality at 2500 ppm [2, 7] was no less than 75%. For the same compound, the mortality at 2500 ppm ([3]; Anthonomus grandis) was no less than 75%, the mortality at 90 ppm [3, 8] was 100% and the mortality at 2500 ppm [4] was no less than 75%.

Compound `CC(NC(=O)c1cc(C(F)(F)F)cc(C(F)(F)F)c1)c1nccnc1-n1cc(Cl)cn1` (stereo not drawn) [WO2021/069575 I-96, reference compound] has a mortality at 2500 ppm ([2]; comparative experiment C.5, read-out: B.6, 2500 ppm (mortality)) of 0%, a mortality at 90 ppm ([3]; Anthonomus grandis, 90 ppm, comparative experiment C.5) of 50% and a mortality at 80 ppm ([4]; 80 ppm, comparative experiment C.5, read-out: B.5, 80 ppm (mortality)) of 0%.

With `CC(NC(=O)c1cc(Cl)cc(S(C)(=O)=O)c1)c1nccnc1-n1nccn1` (stereo not drawn) [WO2021/259997 I-1, reference compound] the mortality at 274 ppm [1] was 0% and the mortality at 9.9 ppm ([3]; Anthonomus grandis) was 0%.

In the case of `CC(C)Sc1cnn(-c2nccnc2C(C)NC(=O)c2cc(C(F)(F)F)cc(C(F)(F)F)c2)c1` (stereo not drawn) [I-48, N-[1-[3-(4-isopropylsulfanylpyrazol-1-yl)pyrazin-2-yl]ethyl]-3,5-bis(trifluoromethyl)benzamide], the mortality at 90 ppm ([1]; comparative experiment C.7) is reported as 100%, the mortality at 2500 ppm [1] is reported as no less than 75% and the mortality at 300 ppm [5] is reported as no less than 75%. For the same compound, the mortality at 2500 ppm ([3]; Anthonomus grandis) was no less than 75% and the mortality at 90 ppm [3, 9] was 100%.

With `CC(NC(=O)c1cc(C(F)(F)F)cc(C(F)(F)F)c1)c1nccnc1-n1cc([S+]([O-])C(C)C)cn1` (stereo not drawn) [I-69, N-[1-[3-(4-isopropylsulfinylpyrazol-1-yl)pyrazin-2-yl]ethyl]-3,5-bis(trifluoromethyl)benzamide] the mortality at 2500 ppm [1] was no less than 75%, the mortality at 2500 ppm [2, 7] was no less than 75% and the mortality at 2500 ppm ([3]; Anthonomus grandis) was no less than 75%. The mortality at 2500 ppm [4] was no less than 75%.

`CC(NC(=O)c1cc(C(F)(F)F)cc(C(F)(F)F)c1)c1nccnc1-n1cc(S(=O)(=O)C2CC2)cn1` (stereo not drawn) [I-65, N-[1-[3-(4-cyclopropylsulfonylpyrazol-1-yl)pyrazin-2-yl]ethyl]-3,5-bis(trifluoromethyl)benzamide] was tested, and the mortality at 2500 ppm [1] was no less than 75%, the mortality at 2500 ppm [2, 7] was no less than 75% and the mortality at 2500 ppm ([3]; Anthonomus grandis) was no less than 75%. The mortality at 2500 ppm [4] was no less than 75%.

`CC(NC(=O)c1cc(C(F)(F)F)cc(C(F)(F)F)c1)c1nccnc1-n1cc(S(=O)(=O)C(C)C)cn1` (stereo not drawn) [I-67, N-[1-[3-(4-isopropylsulfonylpyrazol-1-yl)pyrazin-2-yl]ethyl]-3,5-bis(tri-fluoromethyl)benzamide] was tested, and the mortality at 2500 ppm [1] was no less than 75%, the mortality at 2500 ppm [2, 7] was no less than 75% and the mortality at 2500 ppm ([3]; Anthonomus grandis) was no less than 75%. For the same compound, the mortality at 2500 ppm [4] was no less than 75%.

Work on `CSc1cnn(-c2c(Cl)ccnc2C(C)NC(=O)c2cc(C(F)(F)F)cc(C(F)(F)F)c2)c1` (stereo not drawn) [I-26, N-[1-[4-chloro-3-(4-methylsulfanylpyrazol-1-yl)-2-pyridyl]ethyl]-3,5-bis(trifluoromethyl)benzamide] yielded a mortality at 2500 ppm [1] of no less than 75%, a mortality at 300 ppm [5] of no less than 75% and a mortality at 2500 ppm ([3]; Anthonomus grandis) of no less than 75%. For the same compound, the mortality at 2500 ppm [4] was no less than 75%.

With `Cc1cnn(-c2nccnc2C(C)NC(=O)c2cc(C(F)(F)F)cc(C(F)(F)F)c2)n1` (stereo not drawn) [WO2021/037614 P1, reference compound] the mortality at 90 ppm ([1]; comparative experiment C.1) was 25% and the mortality at 30 ppm ([2]; comparative experiment C.1) was 25%.

For `CC(NC(=O)c1cc(C(F)(F)F)cc(C(F)(F)F)c1)c1nccnc1-n1cc(C(F)(F)F)cn1` (stereo not drawn) [WO2021/069575 I-92, reference compound], the mortality at 100 ppm [1] was 50%, the mortality at 30 ppm ([2]; comparative experiment C.4) was 0% and the “B.2, 90 ppm (mortality)” value ([3]; 90 ppm, comparative experiment C.6) was 0%. It also gave a mortality at 90 ppm [3, 10] of 0% and a mortality at 90 ppm [4] of 0%.

With `CC(NC(=O)c1cc(C(F)(F)F)cc(C(F)(F)F)c1)c1nccnc1-n1cc(SC(F)(F)F)cn1` (stereo not drawn) [I-60, 3,5-bis(trifluoromethyl)-N-[1-[3-[4-(trifluoromethyl-sulfanyl)pyrazol-1-yl]pyrazin-2-yl]ethyl]benzamide] the mortality at 2500 ppm [1] was no less than 75%, the mortality at 300 ppm [5] was no less than 75% and the mortality at 2500 ppm ([3]; Anthonomus grandis) was no less than 75%. For the same compound, the mortality at 2500 ppm [4] was no less than 75%.

`Cc1cn(-c2nccnc2C(C)NC(=O)c2cc(C(F)(F)F)cc(C(F)(F)F)c2)nn1` (stereo not drawn) [WO2021/037614 P41, reference compound] was tested, and the mortality at 90 ppm ([2]; 90 ppm, comparative experiment C.3) was 0% and the mortality at 30 ppm ([3]; Anthonomus grandis, 30 ppm, comparative experiment C.3) was 0%.

For `CC(NC(=O)c1cc(C(F)(F)F)cc(C(F)(F)F)c1)c1nccnc1-n1cc(-c2ccncn2)cn1` (stereo not drawn) [I-42], the mortality at 2500 ppm [1] was no less than 75%, the mortality at 300 ppm [5] was no less than 75% and the mortality at 30 ppm ([2]; comparative experiment C.4) was 100%. It also gave a mortality at 2500 ppm [2, 7] of no less than 75%, a mortality at 2500 ppm ([3]; Anthonomus grandis) of no less than 75% and a mortality at 90 ppm [3, 10] of 100%. It also gave a mortality at 90 ppm [4] of 100% and a mortality at 2500 ppm [4] of no less than 75%.

`CC(NC(=O)c1cc(C(F)(F)F)cc(C(F)(F)F)c1)c1nccnc1-n1cc(S(=O)(=O)C(F)(F)F)cn1` (stereo not drawn) [I-55, 3,5-bis(trifluoromethyl)-N-[1-[3-[4-(trifluoromethylsulfonyl)pyrazol-1-yl]pyrazin-2-yl]ethyl]benzamide] was tested, and the mortality at 100 ppm [1] was 100%, the mortality at 2500 ppm [1] was no less than 75% and the mortality at 2500 ppm ([3]; Anthonomus grandis) was no less than 75%. The mortality at 90 ppm ([3]; Anthonomus grandis, 90 ppm, comparative experiment C.6) was 100% and the mortality at 2500 ppm [4] was no less than 75%.

`CC(NC(=O)c1cc(C(F)(F)F)cc(C(F)(F)F)c1)c1nccc(Cl)c1-n1cc([S+](C)[O-])cn1` (stereo not drawn) [I-28, N-[1-[4-chloro-3-(4-methylsulfinylpyrazol-1-yl)-2-pyridyl]ethyl]-3,5-bis(trifluoromethyl)benzamide] showed a mortality at 300 ppm [5] of no less than 75%, a mortality at 2500 ppm [2, 7] of no less than 75% and a mortality at 2500 ppm ([3]; Anthonomus grandis) of no less than 75%.

`CC(NC(=O)c1cc(Cl)cc(S(C)(=O)=O)c1)c1nccnc1-n1ncc(-c2ccccn2)n1` (stereo not drawn) [I-73] showed a mortality at 274 ppm [1] of 100%, a mortality at 2500 ppm [1] of no less than 75% and a mortality at 2500 ppm [2, 7] of no less than 75%. The mortality at 2500 ppm ([3]; Anthonomus grandis) was no less than 75%, the mortality at 9.9 ppm ([3]; Anthonomus grandis) was 100% and the mortality at 2500 ppm [4] was no less than 75%.

`CC[S+]([O-])c1cnn(-c2nccnc2C(C)NC(=O)c2cc(C(F)(F)F)cc(C(F)(F)F)c2)c1` (stereo not drawn) [I-58] gave a mortality at 90 ppm ([1]; comparative experiment C.7) of 100%, a mortality at 2500 ppm [1] of no less than 75% and a mortality at 2500 ppm [2, 7] of no less than 75%. For the same compound, the mortality at 2500 ppm ([3]; Anthonomus grandis) was no less than 75%, the mortality at 90 ppm [3, 9] was 100% and the mortality at 2500 ppm [4] was no less than 75%.

`CC(NC(=O)c1cc(C(F)(F)F)cc(C(F)(F)F)c1)c1nccc(F)c1-n1cc(S(C)(=O)=O)cn1` (stereo not drawn) [I-53, N-[1-[4-fluoro-3-(4-methylsulfonylpyrazol-1-yl)-2-pyridyl]ethyl]-3,5-bis(trifluoromethyl)benzamide] gave a mortality at 2500 ppm [1] of no less than 75%, a mortality at 2500 ppm ([3]; Anthonomus grandis) of no less than 75% and a mortality at 2500 ppm [4] of no less than 75%.

In the case of `CC(NC(=O)c1cc(C(F)(F)F)cc(C(F)(F)F)c1)c1nccnc1-c1cn(-c2ccn(C)n2)nn1` (stereo not drawn) [WO2021/259997 I-12, reference compound], the mortality at 2500 ppm [2, 6] is reported as 0% and the mortality at 90 ppm [3, 8] is reported as 0%.
